First: CCC(C)(C)c1ccc(OCC(=O)O)c(C(C)(C)C)c1
Second: CCCC1(CC)Cc2cc(OCC(=O)O)c(Cl)c(Cl)c2C1=O (configuration not stated)
The melting point of the first is higher: 140 to 144 °C for the first, 126 °C for the second.

Compared with O=C1c2ccccc2CSc2ccc(Br)cc21, CC(=O)Oc1cc(Cl)ccc1C1(OC(C)=O)C(=O)c2ccccc2C1=O is lower in melting point: 151 to 152 °C for the first, 148 to 150 °C for the second.

First: CC(=O)Nc1cccc(C(=O)CN2C=CSC2NC(C)=O)c1 (configuration not stated)
Second: CC(=O)Nc1ccc2c(c1)CC(CC(=O)O)C2=O (single isomer, unassigned; (-))
The melting point of the first is higher: 224 to 226 °C for the first, 190 to 192 °C for the second.

First: O=c1[nH]c2c([nH]c1=O)C(N1CCOCC1)c1ccccc1-2 (configuration not stated)
Second: N#Cc1c(N2CCOCC2)cccc1[N+](=O)[O-]
The melting point of the first is higher: 265 to 267 °C for the first, 152 to 155 °C for the second.

First: C=C(C)C(=O)OCCNC(=O)Nc1ccc(C(=O)O)c(O)c1
Second: C=CC(=O)NCc1ccc(CC(=O)OCC)cc1
The melting point of the first is higher: 208 to 210 °C for the first, 93 to 95 °C for the second.

First: Nn1cccc1C(=O)c1ccccc1Cl
Second: NC(=O)N(O)Cc1ccc(-c2ccccc2)s1
The melting point of the first is lower: 76 to 78 °C for the first, 174 °C for the second.

First: CC(C)(C)OC(=O)CN1CCC(CNC(=O)c2cc(Cl)c(N)[nH]c2=O)CC1
Second: CC(C)(C)OC(=O)NC[C@H]1CC[C@H](CI)CC1
The melting point of the first is higher: 200 to 203 °C for the first, 81 to 83 °C for the second.

Compared with Cc1c(-c2ccc(O)cc2)n(Cc2ccc(OCCN3C[C@@H]4CC[C@H]3C4)cc2)c2ccc(O)cc12, Cc1ccc(-c2nnc(N3CCN(c4ccc(O)cc4)CC3)c3ccccc23)cc1 is higher in melting point: 125 to 130 °C for the first, 265 to 266 °C for the second.

First: O=C1Nc2ccccc2N(CCCCCCN2CCCCC2)c2ccccc21
Second: COc1cc(NCCCCCCN2C(=O)c3ccccc3C2=O)c2ncccc2c1
The melting point of the first is higher: 124 to 125 °C for the first, 123 to 124 °C for the second.

First: CCCCCCn1c(=O)[nH]c2ncccc2c1=O
Second: CCCCNC(=O)Cc1ccccc1
The melting point of the first is higher: 166 to 168 °C for the first, 56 to 57 °C for the second.

Going from CC(=O)OC1CSC(Oc2cccc(-c3ccsc3)c2)C(OC(C)=O)C1OC(C)=O (configuration not stated) to COc1cc(OC)cc(Sc2ccccc2C(=O)O)c1, the melting point rises from 111 °C to 182 °C.

First: CC(C)COc1ccccc1C(N)=O
Second: CSC1C(=O)Nc2c(C(=O)c3ccccc3F)cccc21 (configuration not stated)
The melting point of the first is lower: 125 to 128 °C for the first, 147 to 148 °C for the second.

First: CN(Cc1cc2c(=O)c(C(=O)NCc3ccc(Cl)cc3)cn(C)c2o1)CC(O)c1ccc(-c2ccccc2)o1 (configuration not stated)
Second: CN(C)Cc1ccccc1C1(c2ccc(Cl)cc2)OC(=O)c2ccccc21 (configuration not stated)
The melting point of the first is lower: 115 to 119 °C for the first, 138 to 140 °C for the second.

First: CCOC(=O)c1[nH]c2cc(Cl)cc(Cl)c2c1NS(=O)(=O)c1ccccc1
Second: Cc1c2c(nn1-c1ccccc1)c(=O)[nH]c1ccccc12
The melting point of the first is lower: 245 to 247 °C for the first, greater than 250 °C for the second.

First: COc1ccc(NS(=O)(=O)c2ccc([N+](=O)[O-])cc2)cc1
Second: CN(CCc1ccc([N+](=O)[O-])cc1)Cc1cc2cc([N+](=O)[O-])ccc2s1
The melting point of the first is higher: 173 to 175 °C for the first, 76 to 78 °C for the second.

Compared with CC(C)CC[C@H](O)[C@H](CC1CCCCC1)NC(=O)[C@H](Cc1c[nH]cn1)NC(=O)[C@H](Cc1ccccc1)NC(=O)N1CCOCC1, CC(C)(C)C(=O)SCC1CCCCCCCSC[C@@H](C(=O)OCc2ccccc2)NC1=O (some centres not stated) is higher in melting point: 108 to 110 °C for the first, 135 to 137 °C for the second.

First: O=[N+]([O-])c1cc(-n2cccc2)ccc1F
Second: CC(=NNc1ccccc1[N+](=O)[O-])c1ccccn1
The melting point of the first is lower: 79 to 81 °C for the first, 145 to 146 °C for the second.

First: N=C(NCc1ccncc1)NN=Cc1c(Cl)cccc1Cl
Second: Nc1ccc(C(=O)CCc2ccc(Cl)c(Cl)c2)cc1
The melting point of the first is higher: 159 to 161 °C for the first, 127 to 129 °C for the second.

First: O=C1OCCN1c1ccc(NCC(O)CO)c([N+](=O)[O-])c1 (configuration not stated)
Second: COC(=O)C1Oc2ccc([N+](=O)[O-])cc2O1 (configuration not stated)
The melting point of the first is higher: 150 °C for the first, 90 to 92 °C for the second.

First: CC=CCn1c(C)c(C)c2cnnc(SCc3c(F)cccc3Cl)c21
Second: Cn1nnnc1-c1cn(C)c2cc(Cl)c(F)cc2c1=O
The melting point of the first is lower: 95 to 117 °C for the first, 264 to 267 °C for the second.

First: COc1ccc(OC(CCCN2CC3CCC(C2)N3C(=O)OC(C)(C)C)c2ccc(C#N)cc2)cc1OC (configuration not stated)
Second: N#Cc1ccc(NC(=O)CN2CCC(Cc3ccc(F)cc3)CC2)cc1
The melting point of the first is lower: 38 to 41 °C for the first, 113 to 116 °C for the second.

First: CCCCOc1nc(-c2ccco2)c2ncn(Cc3ccc(OC)cc3)c2n1
Second: COc1ccc(SCc2ccccc2)cc1
The melting point of the first is higher: 113 °C for the first, 48 to 50 °C for the second.

CC(=O)C1CCC2C3CCC4CC(O)C(O[N+](=O)[O-])CC4(C)C3C(=O)CC12C (configuration not stated) and CC1(O)CCC2C3CCC45OC4(C)C(O)=C(C#N)CC5(C)C3CCC21C (configuration not stated) cannot be ordered by melting point: 170 to 176 °C for the first, 170 to 171 °C for the second.

Compared with Cc1cc(-n2nc3ccc(Cl)cc3n2)c(O)c(C(C)(C)C)c1, CC(C)(C)CN1C(=O)[C@@H](CC(=O)NCc2nnn[nH]2)O[C@H](c2ccccc2Cl)c2cc(Cl)ccc21 (relative stereo) is higher in melting point: 138 to 140 °C for the first, 251 to 252 °C for the second.

Compared with CC(=O)Nc1nc2c(Oc3cc(-c4ccc(C(F)(F)F)cc4NC(=O)C4CCCCN4CC4CC4)ncn3)cccc2s1 (configuration not stated), CCC(SN(C(=O)NC(=O)c1c(F)cccc1F)c1ccc(Oc2ccc(C(F)(F)F)cc2Cl)cc1F)C(=O)NC (configuration not stated) is lower in melting point: 212 to 214 °C for the first, 136 to 138 °C for the second.

Compared with COC(=O)c1nnc(Cl)cc1Cl, CSc1cc(Cl)cc(C(=O)O)c1 is higher in melting point: 57 to 59.5 °C for the first, 148 to 150 °C for the second.

First: Cc1c(N2C[C@@H](N)[C@@H](C)C2)c(F)c(N)c2c(=O)c(C(=O)O)cn(C3CC3)c12 (relative stereo)
Second: CC1(O)CN(c2c(F)cc3c(=O)c(C(=O)O)cn(C4CC4)c3c2F)C1
The melting point of the first is lower: 214 to 215 °C for the first, 290 to 294 °C for the second.

First: CC(C)(C)OC(=O)NC(CSCc1ccc(-c2ccc(-c3ccc4c(c3)OCO4)cc2)cc1)C(=O)O (configuration not stated)
Second: O=C(NC(Cc1ccccc1)C(=O)O)c1ccc(-c2ccc(OCc3ccccc3)cc2)cc1 (configuration not stated)
The melting point of the first is lower: 178 to 180 °C for the first, 302 °C for the second.

Going from CCOP(=O)(OCC)Oc1c(C2CCCCN2CCCCNC(=O)c2ccc(NC(=O)c3ccc(Cl)cc3)cc2)ccc2c1CCCC2 (configuration not stated) to CCc1ccc(C2CCN(CCCCNC(=O)c3ccc(NC(=O)c4ccc(Cl)cc4)cc3)CC2)c(OC)c1, the melting point rises from 200 °C to 235 °C.

First: c1ccc2c(c1)Cn1cccc1-c1nccn1-2
Second: CN1CCN(c2nn(S(=O)(=O)c3ccccc3)c3cc(F)ccc23)CC1
The melting point of the first is higher: 202 to 203 °C for the first, 159 to 161 °C for the second.

Compared with O=Cc1ccc(CSCCN2C(=O)c3ccccc3C2=O)o1, Cc1on(C(=O)N(Cc2ccccc2)c2ccccc2)c(=O)c1Cl is higher in melting point: 76 to 77 °C for the first, 118 to 119 °C for the second.

Compared with CC#CCOc1ccc(S(=O)(=O)C(C(=O)NO)c2cccc3ccccc23)cc1 (configuration not stated), CCOC(=O)CCCCCOc1ccc(C(=O)Nc2ccccc2Oc2ccccc2-c2nnn[nH]2)cc1 is lower in melting point: 213 °C for the first, 140 to 141 °C for the second.

Compared with Cc1cc(-c2ccc(-c3ccco3)cc2)cc(S(N)(=O)=O)c1-n1ccc(C(F)(F)F)n1, CS(=O)(=O)c1ccc(-n2cnc(Cl)c2-c2ccc(Cl)cc2)cc1 is higher in melting point: 87 to 89 °C for the first, 222 to 223 °C for the second.

First: CNC(=O)NCCCCC1CCSS1 (configuration not stated)
Second: CNC(=O)Nc1snc(OC(C)C)c1C#N
The melting point of the first is lower: 89 to 90 °C for the first, 238 °C for the second.

First: CC(Cl)(Cl)C(NC(=O)c1cc(F)cc(F)c1)NC(=NC#N)Nc1ccc(C(F)(F)F)nc1 (configuration not stated)
Second: O=C(Nc1cc(Cl)c(N2CCOCC2)c(Cl)c1)c1ccc(F)c(OCc2cccnc2)c1
The melting point of the first is lower: 202 to 203 °C for the first, 209 to 211 °C for the second.

First: COc1cc(C(C)(C)O)c(O)c2c1C(C)(C)CCC2(C)C
Second: CNc1nc(-c2cccc(N)c2)c2cc(OC)c(OC)cc2n1
The melting point of the first is lower: 140 °C for the first, 197 to 199 °C for the second.

First: O=C(O)Cc1c(Oc2ccccc2)cccc1Oc1ccccc1
Second: CC(=O)SC(CC(=O)c1ccc(Oc2ccc(Cl)cc2)cc1)C(=O)O (configuration not stated)
The melting point of the first is lower: 32 to 38 °C for the first, 91 to 94 °C for the second.

First: CNS(=O)(=O)N1CCNC1=O
Second: CC1(C)OC(=O)C(COS(C)(=O)=O)(c2ccc(Cl)cc2Cl)O1 (configuration not stated)
The melting point of the first is higher: 184 °C for the first, 98 to 100 °C for the second.

First: NC(=O)N1C(=O)C(=C(OC(=O)C=CC(=O)O)c2cccs2)c2cc(Cl)ccc21
Second: [N-]=[N+]=N[C@H]1C[C@H](C(=O)Nc2ccc(N3CCOCC3=O)cc2)N(C(=O)Nc2ccc(Cl)cc2)C1
The melting point of the first is higher: 198 to 200 °C for the first, 145 °C for the second.

First: Cn1c(=O)n2nc(CO)cc2c2ccccc21
Second: Cn1nc2ccccc2c1C(=O)NCCN1CCC(c2ccc(F)cc2)CC1
The melting point of the first is higher: 183 to 184 °C for the first, 105 to 107 °C for the second.

Compared with Cc1ccc(-c2ccc3c(c2)C=C(C(=O)Nc2ccc(CN4CCC(Cc5ccccc5)CC4)cc2)CC3)cc1, CS(=O)(=O)c1ccc(C(CC2CCCC2)C(=O)Nc2ccc3ccccc3n2)cc1[N+](=O)[O-] (configuration not stated) is lower in melting point: 199 to 201 °C for the first, 102 to 106 °C for the second.

Compared with OC(Cn1ccnc1)(c1ccc(Cl)cc1)C1(n2cnc(Cl)n2)CC1 (configuration not stated), Cc1ccc(Cn2ccnc2)cc1 is lower in melting point: 231 °C for the first, 51 to 53 °C for the second.

First: COc1cc2c(Nc3ccc(Cl)cc3F)ncnc2cc1OCCN(C)c1cc(C)nc(C)c1
Second: Cc1nc2c(O)c(CCC(=O)c3ccccc3)c(C(=O)N(C)C)cc2n1COCC[Si](C)(C)C
The melting point of the first is higher: 208 to 212 °C for the first, 192 to 194 °C for the second.

Compared with Nc1cc(C(=O)N2CCC2)cc(C(F)(F)F)c1, CCSc1sc(C(=O)N2CCCC2)c2c1C(=O)CC(C)(C)C2 is lower in melting point: 154 °C for the first, 129 to 132 °C for the second.

First: Cc1cc(-n2c(C)nc3ccccc32)cc2c1NC(=O)CC2C (configuration not stated)
Second: CCCC(=O)Oc1ccc(C2=NNC(=O)CC2C)cc1 (configuration not stated)
The melting point of the first is higher: 248 to 252 °C for the first, 112 to 113 °C for the second.

First: O=C(c1cc2[nH]nc(-c3cc4cc(CO)ccc4[nH]3)c2s1)N1CCN(c2ccc(F)cc2)CC1
Second: CN1CCN(CCCOc2ccc(Nc3ncc4ccc(-c5cccnc5)n4n3)cc2)CC1
The melting point of the first is higher: 156 to 158 °C for the first, 135 to 139 °C for the second.

Cc1c(Cc2ccc(C(C)C)cc2)c2c(c(C)c1NC(=O)CC(C)(C)C)C(c1ccc(C(C)C)cc1)CO2 (configuration not stated) and CC1(C)OC[C@H]([C@@H](CS(=O)(=O)c2ccc(Oc3ccc(Cl)cc3)cc2)N(O)C=O)O1 fall in the same range of melting point: 157 to 158 °C for the first, 157 to 158 °C for the second.

First: CCCCCCCCCCCCCCCCCCNC(=O)N1CCN(C(=O)c2ccc(CCl)cc2)CC1
Second: CCOC(=O)C(N)=NOC(=O)c1ccc(F)cc1
The melting point of the first is lower: 68 to 70 °C for the first, 196 to 198 °C for the second.

Work on Cc1nc[nH]c1CSCCN=C(NCCSCc1[nH]cnc1C)NC(N)=O yielded a melting point of 60 to 70 °C.
